Measured values published in the NIST ThermoML archive (doi:10.1016/j.jct.2018.07.023).
Values joined by “and” are separate entries in the source; they are usually repeats but may differ in a detail not shown here. Identical values can stand only once. Numbers after ± are expanded uncertainties.

What was measured:
[1] = Molar enthalpy of transition or fusion; conditions: Crystal; DSC
[2] = molar enthalpy of vaporization or sublimation; conditions: Static calorimetry

COc1cc(C=O)ccc1O [vanillin]
Molar enthalpy of transition or fusion [1]: 5.47 ± 0.215 kcal/mol | vapor or sublimation pressure (303.13 K, Crystal, Calculated from knudsen effusion weight loss): 6.6e-05 ± 2e-05 kPa and 6.5e-05 ± 2e-05 kPa | vapor or sublimation pressure (305.32 K, Crystal, Calculated from knudsen effusion weight loss): 8.9e-05 ± 2e-05 kPa and 8.8e-05 ± 2e-05 kPa | vapor or sublimation pressure (307.19 K, Crystal, Calculated from knudsen effusion weight loss): 0.000112 ± 2e-05 kPa and 0.000113 ± 2e-05 kPa and 0.000114 ± 2e-05 kPa | vapor or sublimation pressure (309.13 K, Crystal, Calculated from knudsen effusion weight loss): 0.000144 ± 2.1e-05 kPa and 0.000142 ± 2.1e-05 kPa and 0.000145 ± 2.1e-05 kPa | vapor or sublimation pressure (311.35 K, Crystal, Calculated from knudsen effusion weight loss): 0.000185 ± 2.1e-05 kPa and 0.000182 ± 2.1e-05 kPa and 0.000187 ± 2.1e-05 kPa | vapor or sublimation pressure (313.2 K, Crystal, Calculated from knudsen effusion weight loss): 0.000235 ± 2.2e-05 kPa and 0.000234 ± 2.2e-05 kPa and 0.000236 ± 2.2e-05 kPa | vapor or sublimation pressure (315.11 K, Crystal, Calculated from knudsen effusion weight loss): 0.000292 ± 2.3e-05 kPa and 0.00029 ± 2.2e-05 kPa and 0.000294 ± 2.3e-05 kPa | vapor or sublimation pressure (317.29 K, Crystal, Calculated from knudsen effusion weight loss): 0.000384 ± 2.4e-05 kPa and 0.000383 ± 2.4e-05 kPa | vapor or sublimation pressure (319.19 K, Crystal, Calculated from knudsen effusion weight loss): 0.000472 ± 2.6e-05 kPa and 0.000474 ± 2.6e-05 kPa and 0.000478 ± 2.6e-05 kPa | vapor or sublimation pressure (320.95 K, Crystal, Closed cell (Static) method): 0.00058 ± 0.00011 kPa | vapor or sublimation pressure (321.11 K, Crystal, Calculated from knudsen effusion weight loss): 0.000597 ± 2.9e-05 kPa and 0.000586 ± 2.9e-05 kPa and 0.000599 ± 2.9e-05 kPa | vapor or sublimation pressure (322.92 K, Crystal, Closed cell (Static) method): 0.00072 ± 0.00012 kPa | vapor or sublimation pressure (323.29 K, Crystal, Calculated from knudsen effusion weight loss): 0.000759 ± 3.4e-05 kPa and 0.00075 ± 3.3e-05 kPa and 0.000765 ± 3.4e-05 kPa | vapor or sublimation pressure (324.92 K, Metastable liquid, Closed cell (Static) method): 0.00192 ± 0.00013 kPa | vapor or sublimation pressure (324.98 K, Crystal, Closed cell (Static) method): 0.00092 ± 0.00012 kPa | vapor or sublimation pressure (325.2 K, Crystal, Calculated from knudsen effusion weight loss): 0.000955 ± 3.9e-05 kPa and 0.000953 ± 3.9e-05 kPa and 0.00094 ± 3.9e-05 kPa | vapor or sublimation pressure (326.9 K, Crystal, Closed cell (Static) method): 0.00114 ± 0.00012 kPa | vapor or sublimation pressure (326.91 K, Metastable liquid, Closed cell (Static) method): 0.00226 ± 0.00014 kPa | vapor or sublimation pressure (328.87 K, Metastable liquid, Closed cell (Static) method): 0.00268 ± 0.00015 kPa | vapor or sublimation pressure (328.94 K, Crystal, Closed cell (Static) method): 0.00143 ± 0.00013 kPa | vapor or sublimation pressure (330.87 K, Metastable liquid, Closed cell (Static) method): 0.00316 ± 0.00017 kPa | vapor or sublimation pressure (330.89 K, Crystal, Closed cell (Static) method): 0.00175 ± 0.00013 kPa | vapor or sublimation pressure (332.83 K, Metastable liquid, Closed cell (Static) method): 0.00373 ± 0.00019 kPa | vapor or sublimation pressure (332.87 K, Crystal, Closed cell (Static) method): 0.00215 ± 0.00014 kPa | vapor or sublimation pressure (334.8 K, Metastable liquid, Closed cell (Static) method): 0.00439 ± 0.00021 kPa | vapor or sublimation pressure (334.84 K, Crystal, Closed cell (Static) method): 0.00266 ± 0.00015 kPa | vapor or sublimation pressure (336.81 K, Metastable liquid, Closed cell (Static) method): 0.00517 ± 0.00023 kPa | vapor or sublimation pressure (336.83 K, Crystal, Closed cell (Static) method): 0.0033 ± 0.00017 kPa | vapor or sublimation pressure (338.81 K, Metastable liquid, Closed cell (Static) method): 0.00609 ± 0.00027 kPa | vapor or sublimation pressure (338.83 K, Crystal, Closed cell (Static) method): 0.00407 ± 0.0002 kPa | vapor or sublimation pressure (340.8 K, Metastable liquid, Closed cell (Static) method): 0.00717 ± 0.0003 kPa | vapor or sublimation pressure (340.83 K, Crystal, Closed cell (Static) method): 0.00502 ± 0.00023 kPa | vapor or sublimation pressure (342.78 K, Metastable liquid, Closed cell (Static) method): 0.00834 ± 0.00035 kPa | vapor or sublimation pressure (342.8 K, Crystal, Closed cell (Static) method): 0.0061 ± 0.00027 kPa | vapor or sublimation pressure (344.77 K, Crystal, Closed cell (Static) method): 0.00747 ± 0.00032 kPa | vapor or sublimation pressure (344.79 K, Metastable liquid, Closed cell (Static) method): 0.00978 ± 0.0004 kPa | vapor or sublimation pressure (346.69 K, Metastable liquid, Closed cell (Static) method): 0.01123 ± 0.00045 kPa | vapor or sublimation pressure (346.73 K, Crystal, Closed cell (Static) method): 0.00911 ± 0.00038 kPa | vapor or sublimation pressure (348.72 K, Crystal, Closed cell (Static) method): 0.01103 ± 0.00045 kPa | vapor or sublimation pressure (348.73 K, Metastable liquid, Closed cell (Static) method): 0.01314 ± 0.00052 kPa | vapor or sublimation pressure (350.68 K, Metastable liquid, Closed cell (Static) method): 0.01523 ± 0.00055 kPa | vapor or sublimation pressure (350.7 K, Crystal, Closed cell (Static) method): 0.01345 ± 0.00052 kPa | vapor or sublimation pressure (352.63 K, Metastable liquid, Closed cell (Static) method): 0.01755 ± 0.00059 kPa | vapor or sublimation pressure (354.6 K, Metastable liquid, Closed cell (Static) method): 0.02014 ± 0.00063 kPa | vapor or sublimation pressure (356.63 K, Closed cell (Static) method, Liquid): 0.02334 ± 0.00068 kPa | vapor or sublimation pressure (358.57 K, Closed cell (Static) method, Liquid): 0.02665 ± 0.00073 kPa | vapor or sublimation pressure (360.48 K, Closed cell (Static) method, Liquid): 0.03073 ± 0.00079 kPa | vapor or sublimation pressure (362.45 K, Closed cell (Static) method, Liquid): 0.03517 ± 0.00086 kPa | vapor or sublimation pressure (364.45 K, Closed cell (Static) method, Liquid): 0.04012 ± 0.00093 kPa | vapor or sublimation pressure (366.47 K, Closed cell (Static) method, Liquid): 0.04555 ± 0.001 kPa | vapor or sublimation pressure (368.43 K, Closed cell (Static) method, Liquid): 0.05205 ± 0.0011 kPa | vapor or sublimation pressure (370.37 K, Closed cell (Static) method, Liquid): 0.05931 ± 0.0012 kPa | vapor or sublimation pressure (372.38 K, Closed cell (Static) method, Liquid): 0.06765 ± 0.0014 kPa | vapor or sublimation pressure (374.32 K, Closed cell (Static) method, Liquid): 0.07665 ± 0.0015 kPa | vapor or sublimation pressure (376.51 K, Closed cell (Static) method, Liquid): 0.08673 ± 0.0016 kPa | vapor or sublimation pressure (378.22 K, Closed cell (Static) method, Liquid): 0.09764 ± 0.0018 kPa | vapor or sublimation pressure (380.28 K, Closed cell (Static) method, Liquid): 0.1104 ± 0.002 kPa | vapor or sublimation pressure (382.26 K, Closed cell (Static) method, Liquid): 0.1243 ± 0.0022 kPa | Normal melting temperature (Crystal, DTA): 82.6 ± 0.5 °C | molar enthalpy ([2]; 298.15 K, Crystal): 23.8 ± 0.645 kcal/mol | molar enthalpy ([2]; 375.81 K, Liquid): 17.9 ± 0.574 kcal/mol
